The source made the active and inactive calls. How the calls were made is not given here. Where only a bound is given, the exact number is not on record here.

The target in this experiment is Signal transducer and activator of transcription 1-alpha/beta (Homo sapiens) (UniProt P42224). As to the kind of experiment: inhibition of STAT1 reporter activity – cell-based, NIH 3T3, luciferase reporter, dose response (AID 1396). As to conditions: NIH 3T3 fibroblasts. For orientation: Reporter assays use an easily measured gene product as a stand-in for the process of interest.
Signal transducer and activator of transcription 1-alpha/beta (Homo sapiens), sequence (P42224 whole entry, looked up): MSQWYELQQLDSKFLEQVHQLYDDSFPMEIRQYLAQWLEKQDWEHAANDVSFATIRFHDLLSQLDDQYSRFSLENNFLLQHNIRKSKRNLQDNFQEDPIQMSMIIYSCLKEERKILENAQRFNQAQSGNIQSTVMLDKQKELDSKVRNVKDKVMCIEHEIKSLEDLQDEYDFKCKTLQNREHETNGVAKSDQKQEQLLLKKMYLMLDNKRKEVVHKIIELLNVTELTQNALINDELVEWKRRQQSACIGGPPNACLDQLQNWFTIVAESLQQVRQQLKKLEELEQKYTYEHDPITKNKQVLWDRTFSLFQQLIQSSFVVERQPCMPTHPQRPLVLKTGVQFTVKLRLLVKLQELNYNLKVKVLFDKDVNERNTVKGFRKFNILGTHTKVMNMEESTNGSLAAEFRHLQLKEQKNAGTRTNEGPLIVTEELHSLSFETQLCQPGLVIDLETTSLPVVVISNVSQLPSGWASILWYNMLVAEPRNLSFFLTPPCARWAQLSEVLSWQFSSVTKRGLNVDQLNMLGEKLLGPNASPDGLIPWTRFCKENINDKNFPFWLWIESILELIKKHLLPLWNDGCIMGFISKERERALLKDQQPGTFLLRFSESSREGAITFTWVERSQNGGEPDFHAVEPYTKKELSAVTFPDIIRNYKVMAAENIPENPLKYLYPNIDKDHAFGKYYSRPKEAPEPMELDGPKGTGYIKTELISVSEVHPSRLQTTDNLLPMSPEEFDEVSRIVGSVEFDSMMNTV
The term IC50 denotes the concentration at which inhibition is half-maximal. Turning to `COc1ccccc1-c1cc(C(F)(F)F)nc(S(=O)(=O)CCCC(=O)N2CCOCC2)n1`, the IC50 is > 6.19 µM (inactive).

For the compound `Cn1c(C(=O)N2CCN(c3ccc([N+](=O)[O-])cc3)CC2)cc2c(=O)[nH]c3ccccc3c21`, the IC50 entry is “inactive”.

`COC(=O)C1=CN(Cc2ccc(OC)c(OC)c2)C=C(C(=O)OC)C1c1cccs1`: the IC50 result is “inactive”. The same measure for `CCn1c(O)c(/C=N/NC(=O)c2ccncc2)c(=O)n(CC)c1=S`: 4.42 µM; for `O=C(c1ccco1)N1CCN(c2ncnc3c2[nH]c2ccc(Br)cc23)CC1`: “inactive”. The same measure for `CCn1c(=O)c2cc(C(=O)N3CCCC3)sc2c2ccccc21`: “inactive”; for `O=C(c1ccc2c(c1)N(Cc1ccccc1)C(=O)c1ccccc1S2)N1CCCC1`: 8.43 µM; for `CN1CCN(Cc2nc3ccccc3c(=O)n2Cc2nc(-c3ccccc3F)cs2)CC1`: 4.24 µM. For `Cc1ccccc1NC(=O)C(=Cc1ccc(C(=O)O)cc1)C(=O)Nc1ccccc1C` the value was “inactive”; for `COc1ccc(CNc2ncnc3cc(Cl)ccc23)cc1OC`, “inactive”. On to `Cc1ccccc1-c1noc(N)c1C#N`, for which the IC50 is > 55.7 µM (inactive). For `COc1ccccc1-c1cc(C(F)(F)F)nc(S(C)(=O)=O)n1` the value was > 18.6 µM (inactive); for `CCOc1cc(-c2noc(N)c2C#N)cc(OCC)c1OCC`, > 55.7 µM (inactive); for `CCOC(=O)N1CCN(C(=O)c2ccc(CSc3ccc(Cl)cc3)cc2)CC1`, > 55.7 µM (inactive).

Consider `Cc1ccc2[nH]c3c(N4CCN(Cc5ccccc5)CC4)ncnc3c2c1`, for which the IC50 is > 55.7 µM (inactive).

Consider `O=C(c1ccc(Cl)cc1)N1CCN(c2ccnc3cc(Cl)ccc23)CC1`, for which the IC50 was > 55.7 µM (inactive).

For the compound `COc1ccc(CCNc2ncnc3cc(OC)c(OC)cc23)cc1OC`, the IC50 is > 55.7 µM (inactive). For `Cc1cc(NC(=O)CCCS(=O)(=O)c2nc(-c3cccs3)cc(C(F)(F)F)n2)no1` the value was “inactive”; for `CCN(CC)S(=O)(=O)c1ccc(N2CCOCC2)c(NC(=O)c2cc(-c3ccccn3)nc3ccccc23)c1`, “inactive”.

As for `Cc1cccc(/C=C(\c2nc3ccccc3[nH]2)S(=O)(=O)c2ccccc2)c1`, the IC50 was > 55.7 µM (inactive).

Turning to `CCOC(=O)N1CCN(C(=O)/C=C/c2c(C)nn(-c3ccc(F)cc3)c2Cl)CC1`, the IC50 entry is “inactive”. For `CN1CCN(Cc2nc3ccccc3c(=O)n2Cc2nc(-c3cccc([N+](=O)[O-])c3)cs2)CC1` the value was “inactive”; for `COc1ccc(-n2c(SCc3cccnc3)nc3c(c2=O)SCC3)cc1OC`, “inactive”; for `C#Cc1ccc([C@H]2C=C(C(=O)OCC=C)O[C@@H](OCC)[C@@H]2CCCO)cc1`, “inactive”. The same measure for `O=C(NNC(=O)c1cccc(S(=O)(=O)N2CCc3ccccc32)c1)c1ccccc1`: > 55.7 µM (inactive); for `Cc1ccc(C(=O)Nc2cccc(N(C)S(C)(=O)=O)c2)cc1S(=O)(=O)Nc1ccccc1`: “inactive”; for `COC(=O)CCS(=O)(=O)c1nc(-c2ccccc2)cc(C(F)(F)F)n1`: “inactive”. For `COc1ccccc1CNc1ncnc2cc(Cl)ccc12` the value was > 55.7 µM (inactive); for `CC1(C)Cc2c(ccc3ccccc23)C2=C(C(=O)N3CCCC3)C(=O)C(=O)N21`, “inactive”; for `CS(=O)(=O)c1nc(-c2ccccc2)cc(C(F)(F)F)n1`, 9.97 µM.

Turning to `COc1ccc(-c2cc(C(F)(F)F)nc(S(=O)(=O)CCCC(=O)Nc3cccnc3Cl)n2)cc1OC`, the IC50 result is “inactive”. With `Cc1ccc(-n2nc(C(=O)O)c3ccccc3c2=O)cc1C`, the half-maximal inhibitory concentration (IC50) is 5.2 µM. For `Cc1cc(=O)n(C(NC(=O)c2ccccc2)C(=O)c2ccccc2)cn1` (centres undefined) the value was 9.25 µM. With `CCOC(=O)c1c(C)nc2sc3c(=O)n(-c4ccc(OC)cc4)nnc3c2c1-c1ccc(OC)cc1`, the IC50 entry was “inactive”.

Take `CN1CCN(Cc2nc3ccccc3c(=O)n2Cc2nc(-c3ccc4ccccc4c3)cs2)CC1`: the concentration for half-maximal inhibition (IC50) was 9.58 µM.

Turning to `CS(=O)(=O)c1nc(-c2ccco2)cc(C(F)(F)F)n1`, the IC50 is > 18.6 µM (inactive).

With `COCC(C)NC(=O)CCS(=O)(=O)c1nc(-c2ccc(OC)cc2)cc(C(F)(F)F)n1` (centres undefined), the IC50 entry was “inactive”. For `COc1ccc(CCNC(=O)Cn2c(=O)n(-c3ccc(F)cc3)c(=O)c3sccc32)cc1OC` the value was “inactive”; for `O=C(CSc1nc2ccccc2c(=O)[nH]1)c1ccc(O)cc1O`, 9.39 µM; for `Cc1ccc(-c2csc3ncnc(Sc4nnc(CN5CCCCCC5=O)o4)c23)cc1`, 6.7 µM. For `Cc1ccc(S(=O)(=O)N2CCN(C(C(=O)Nc3ccc(F)cc3)c3ccccc3)CC2)cc1` (centres undefined) the value was 7.87 µM; for `CCOC(=O)CCS(=O)(=O)c1nc(-c2ccccc2)cc(C(F)(F)F)n1`, “inactive”; for `CCOC(=O)N1CCN(C(=O)c2ccc(-n3c(=S)[nH]c4ccccc4c3=O)cc2)CC1`, 3.47 µM. The same measure for `COc1ccccc1-c1cc(C(F)(F)F)nc(S(=O)(=O)CCCC(=O)Nc2cccnc2Cl)n1`: > 18.6 µM (inactive); for `CS(=O)(=O)c1nc(-c2ccc(F)cc2)cc(C(F)(F)F)n1`: “inactive”. Take `Cn1nnnc1Sc1ncnc2scc(-c3ccc(F)cc3)c12`: the IC50 result is “inactive”. For `COc1ccc(-c2cc(C(F)(F)F)nc(S(=O)(=O)CCCC(=O)Nc3cc(C)on3)n2)cc1OC` the value was “inactive”; for `COc1ccc(-c2cc(C(F)(F)F)nc(S(=O)(=O)CCCC(=O)Nc3cccc(O)c3)n2)cc1OC`, “inactive”. The same measure for `O=c1cc(CSc2nc3ccccc3c(=O)[nH]2)c2ccc(O)cc2o1`: 4.36 µM.

Source of the values: PubChem BioAssay AID1396 (The Scripps Research Institute Molecular Screening Center, 2008).
